This note sets out measurements from patent US8674113B2, “Compounds” (Boehringer Ingelheim International GmbH, priority 2010, dated 2014).

One assay concerns the target mPGES-1 in A549 cells (Homo sapiens (Human), UniProt O14684). Kind of assay: A549 cell-based assay (PGE2 formation, 50% human serum). To be noted: IL-1β 5 ng/ml, 10 nM arachidonic acid, 20-24 h, read-out: mPGES-1 inhibitory effect IC50 in the cell assay. The procedure, abridged:
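PGE2 release, read by HTRF and set to 100% for vehicle, gave IC50s from 6-8 point titrations. Human A549 cells were exposed to compound for 20-24 h in medium with 50% human serum, with IL-1β (5 ng/ml) and arachidonic acid (10 nM) as stimulus.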

The target in assay [1] is recombinant human mPGES-1 (Homo sapiens (Human), UniProt O14684). Kind of assay: mPGES-1 enzyme assay (HTRF detection of PGE2). It counts as biochemical. To be noted: recombinant human mPGES-1 microsomes, PGH2 2 μM, 60 seconds; read-out: mPGES-1 inhibitory effect IC50 in the enzyme assay. The procedure, abridged: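 Microsomes from E. coli expressing recombinant human mPGES-1 (~0.5 μg protein/well) in 0.1 M phosphate pH 7.4 with 2.5 mM GSH, pre-incubated with compound 25 min at room temperature. PGH2 (2 μM final) added, reaction stopped with FeCl2 after 60 s; PGE2 quantified by HTRF (665/620 ratio) against a calibration curve, IC50 by nonlinear regression after background subtraction.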

Structures are written as SMILES.

As usually defined, the IC50 is the midpoint of a concentration-inhibition curve.

mPGES-1 in A549 cells, sequence (O14684 whole entry): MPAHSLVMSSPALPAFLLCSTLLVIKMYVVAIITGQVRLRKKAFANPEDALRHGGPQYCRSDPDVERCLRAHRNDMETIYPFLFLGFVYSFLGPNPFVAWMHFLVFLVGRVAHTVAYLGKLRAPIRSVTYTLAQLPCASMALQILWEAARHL
recombinant human mPGES-1, sequence (O14684 whole entry): as above

Regarding `Cn1c(Nc2c(Cl)ccc(CNC(=O)C(C)(C)C)c2Cl)nc2cc(C(=O)N[C@H]3CC[C@H](C(F)(F)F)CC3)c(N3CCC4(CC4)C3)cc21` [Example 121], the IC50 was 2 nM on mPGES-1 in A549 cells and 3 nM in assay [1].

On to `Cn1c(Nc2c(Cl)ccc(CNC(=O)C(C)(C)C)c2Cl)nc2cc(C(=O)N[C@H]3CC[C@H](C(F)(F)F)CC3)c(N3CC4CCCC43)cc21` (some centres unmarked) [Example 95], for which the IC50 at mPGES-1 in A549 cells turned out to be 7 nM; in assay [1], 2 nM.

As for `Cn1c(Nc2c(Cl)ccc(CNC(=O)C(C)(C)C)c2Cl)nc2cc(C(=O)NC3(c4ccc(F)cc4)CC3)c(N3CCC(C(F)(F)F)CC3)cc21` [Example 58], the figures for the 50% inhibitory concentration (IC50) (on mPGES-1 in A549 cells; in assay [1]) were 1 nM and 3 nM, respectively.

Regarding `Cn1c(Nc2c(Cl)ccc(CNC(=O)c3c(N)cccc3Cl)c2Cl)nc2cc(C(=O)NCCC(F)(F)F)c(N3CCC(C(F)(F)F)CC3)cc21` [Example 176], the IC50 at mPGES-1 in A549 cells was 34 nM; in assay [1], 4 nM.

Turning to `Cn1c(Nc2c(Cl)ccc(CNC(=O)C(C)(C)F)c2Cl)nc2cc(C(=O)N[C@H]3CC[C@@H](C(F)(F)F)CC3)c(N3CCC(C(F)(F)F)CC3)cc21` [Example 253], the IC50 on mPGES-1 in A549 cells was 2.4 nM; in assay [1], 5.7 nM.

Regarding `Cn1c(Nc2c(Cl)ccc(CNC(=O)C(C)(C)C)c2Cl)nc2cc(C(=O)N[C@H]3CC[C@H](C(F)(F)F)CC3)c(N3CC(O)C3)cc21` [Example 87], the IC50 on mPGES-1 in A549 cells is 8 nM; in assay [1], 2 nM.

Turning to `CN1CCN(c2cc3c(cc2C(=O)N[C@H]2CC[C@H](C(F)(F)F)CC2)nc(Nc2c(Cl)ccc(CNC(=O)C(C)(C)C)c2Cl)n3C)CC1=O` [Example 25], the IC50 on mPGES-1 in A549 cells turned out to be 12 nM; in assay [1], 4 nM.

Take `Cn1c(Nc2c(Cl)ccc(CNC(=O)C(C)(C)C)c2Cl)nc2cc(C(=O)NC3CC(F)(F)C3)c(N3CCC(C(F)(F)F)CC3)cc21` [Example 14]: the half-inhibitory concentration (IC50) on mPGES-1 in A549 cells was less than 1 nM; in assay [1], 1 nM.

For `Cn1c(Nc2c(Cl)ccc(CNC(=O)C(C)(C)C)c2Cl)nc2cc(C(=O)NCc3ncccc3C(F)(F)F)c(N3CCC(F)(F)C3)cc21` [Example 43], the figures for the 50% inhibitory concentration (IC50) (at mPGES-1 in A549 cells; in assay [1]) were 5 nM and 3 nM, respectively.

Consider `Cn1c(Nc2c(Cl)ccc(CNC(=O)C(C)(C)F)c2Cl)nc2cc(C(=O)NCCC(F)(F)F)c(N3CCC(O)CC3)cc21` [Example 148], for which the concentration for half-maximal inhibition (IC50) worked out at 20 nM on mPGES-1 in A549 cells and 3 nM in assay [1].

Consider `CN(c1cc2c(cc1C(=O)N[C@H]1CC[C@H](C(F)(F)F)CC1)nc(Nc1c(Cl)ccc(CNC(=O)C(C)(C)C)c1Cl)n2C)C1CCS(=O)(=O)C1` (stereo partly drawn) [Example 119, N-(trans-4-Trifluoromethyl-cyclohexyl)-2-{2,6-dichloro-3-[(2,2-dimethyl-propionylamino)-methyl]-phenylamino}-6-[N-methyl-N-(1,1-dioxo-tetrahydro-thiophen-3-yl)-amino]-1-methyl-1H-benzimidazole-5-carboxylic acid amide], for which the IC50 at mPGES-1 in A549 cells was 1 nM; in assay [1], 2 nM.

With `Cn1c(Nc2c(Cl)ccc(CNC(=O)C(C)(C)C)c2Cl)nc2cc(C(=O)Nc3cccc(OC(F)(F)F)c3)c(N3CCC(F)(F)C3)cc21` [Example 40], the IC50 at mPGES-1 in A549 cells was less than 1 nM; in assay [1] it was 2 nM.

On to `CC(C)(C)C(=O)NCc1ccc(Cl)c(Nc2nc3cc(C(=O)N[C@H]4CC[C@H](C(F)(F)F)CC4)c(N4CC5CC5C4)cc3n2C2(C(C)(C)O)CC2)c1Cl` (some centres unmarked) [Example 164], for which the half-maximal inhibitory concentration (IC50) on mPGES-1 in A549 cells turned out to be 7 nM; in assay [1] it was 4 nM.

Turning to `Cn1c(Nc2c(Cl)ccc(CNC(=O)C(C)(C)C)c2Cl)nc2cc(C(=O)Nc3ccc(F)c(Cl)c3)c(N3CCC(F)(F)C3)cc21` [Example 42], the IC50 (at mPGES-1 in A549 cells; in assay [1]) was 2 nM in each case.

Take `Cn1c(Nc2c(Cl)ccc(CNC(=O)[C@](C)(O)C(F)(F)F)c2Cl)nc2cc(C(=O)NC3CC(F)(F)C3)c(N3CCC(C(F)(F)F)CC3)cc21` [Example 259]: the IC50 on mPGES-1 in A549 cells is 2 nM; in assay [1], 4.1 nM.

In the case of `Cn1c(Nc2c(Cl)ccc(CNC(=O)C(C)(C)C)c2Cl)nc2cc(C(=O)N[C@H](c3ccccc3)C(F)(F)F)c(N3CCC(F)(F)C3)cc21` [Example 41], the IC50 on mPGES-1 in A549 cells stood at 7 nM; in assay [1], 2 nM.
